Results reported in patent publication US20250197382A1, “KIF18A INHIBITOR” (WIGEN BIOMEDICINE TECHNOLOGY (SHANGHAI) CO., LTD., priority 2022, published 2025).

Biological target: Recombinant human KIF18A (1-467His-tagged) protein (Homo sapiens (Human), UniProt Q8NI77)
Assay: KIF18A enzyme assay (microtubule-stimulated ATPase activity, ADP-Glo)
Type: biochemical
Conditions: 30 nM KIF18A, ATP 75 μM, read-out: inhibitory activity against KIF18A IC50
How it was run: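 Baculovirus-expressed human KIF18A (1-467, His-tagged; 30 nM) preincubated 15 min at room temperature with compound (22-point 2-fold series) in pH 7.5 Tris buffer containing 30 μg/mL pig microtubules and 1 μM paclitaxel.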

Chain of Recombinant human KIF18A (1-467His-tagged) protein (Q8NI77 1-467): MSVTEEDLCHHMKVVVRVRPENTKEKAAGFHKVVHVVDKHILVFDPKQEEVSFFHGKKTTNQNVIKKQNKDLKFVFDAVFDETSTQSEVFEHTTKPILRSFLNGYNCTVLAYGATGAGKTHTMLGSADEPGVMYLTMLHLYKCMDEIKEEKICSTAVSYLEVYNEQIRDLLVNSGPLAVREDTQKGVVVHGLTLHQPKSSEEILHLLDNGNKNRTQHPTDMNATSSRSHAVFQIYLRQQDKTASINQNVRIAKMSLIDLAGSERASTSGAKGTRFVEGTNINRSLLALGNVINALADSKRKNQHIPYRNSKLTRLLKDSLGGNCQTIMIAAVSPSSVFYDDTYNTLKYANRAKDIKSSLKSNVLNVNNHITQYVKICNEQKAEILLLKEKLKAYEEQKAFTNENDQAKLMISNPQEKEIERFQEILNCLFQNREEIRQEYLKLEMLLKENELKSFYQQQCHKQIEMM
Chain of Recombinant human KIF18A (1-467His-tagged) protein (P02550 whole entry partner): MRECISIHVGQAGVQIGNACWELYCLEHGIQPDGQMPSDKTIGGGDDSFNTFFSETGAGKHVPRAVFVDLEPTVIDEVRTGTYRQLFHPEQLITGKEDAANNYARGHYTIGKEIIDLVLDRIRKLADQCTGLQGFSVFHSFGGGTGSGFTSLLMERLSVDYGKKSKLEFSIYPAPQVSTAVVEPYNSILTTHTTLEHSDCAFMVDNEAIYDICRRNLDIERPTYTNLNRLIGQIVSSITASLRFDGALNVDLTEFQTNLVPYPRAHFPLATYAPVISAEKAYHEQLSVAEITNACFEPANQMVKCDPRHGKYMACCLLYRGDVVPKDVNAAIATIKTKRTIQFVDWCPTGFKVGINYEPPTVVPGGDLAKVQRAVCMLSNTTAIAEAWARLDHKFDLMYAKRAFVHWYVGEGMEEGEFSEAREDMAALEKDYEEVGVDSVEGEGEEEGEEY
Chain of Recombinant human KIF18A (1-467His-tagged) protein (P02554 whole entry partner): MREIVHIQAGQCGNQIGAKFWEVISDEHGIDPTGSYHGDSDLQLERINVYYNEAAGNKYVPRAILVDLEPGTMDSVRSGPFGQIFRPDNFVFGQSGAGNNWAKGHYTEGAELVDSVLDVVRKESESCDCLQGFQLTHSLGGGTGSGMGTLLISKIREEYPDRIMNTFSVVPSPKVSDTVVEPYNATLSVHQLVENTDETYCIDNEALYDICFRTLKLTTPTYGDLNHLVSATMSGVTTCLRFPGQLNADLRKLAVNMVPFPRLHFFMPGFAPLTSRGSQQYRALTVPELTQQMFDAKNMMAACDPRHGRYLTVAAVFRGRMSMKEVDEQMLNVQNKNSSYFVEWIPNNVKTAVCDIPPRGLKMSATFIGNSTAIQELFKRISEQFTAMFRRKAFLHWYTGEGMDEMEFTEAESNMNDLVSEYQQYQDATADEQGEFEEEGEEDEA

SMILES	IC50
C[C@@H](CO)NS(=O)(=O)c1ccc(C(=O)Nc2cc3c(c(N4CCC(F)(F)CC4)c2)N(C)CC3)c(N2CCC3(CC2)CC3)c1 [Compound 285]	≤ 100 nM
Cn1ccc2cc(C(=O)Nc3ccc(NS(=O)(=O)CCO)cc3N3CCC4(CC3)CC4)cc(NC(C)(C)CO)c21 [Compound 427]	≤ 100 nM
O=C(Nc1cc2c(c(N3CCC(F)(F)CC3)c1)OCCC2)c1ccc(S(=O)(=O)NCCO)cc1N1CCC2(CC1)CC2 [Compound 546]	≤ 100 nM
CN1CCc2cc(C(=O)Nc3ccc(S(=O)(=O)NCCO)cc3N3CCC4(CC3)CC4)nc(NC(C)(C)CO)c21 [Compound 379]	≤ 100 nM
Cn1ccc2cc(NC(=O)c3ccc(S(=O)(=O)NCCO)cc3N3CCC4(CC3)CC4)nc(N3CCOCC3)c21 [Compound 476]	≤ 100 nM
C[C@H]1CN(c2nc(NC(=O)c3ccc(S(=O)(=O)NCCO)cc3N3CCC4(CC3)CC4)cc3c2N(C)CC3)CCO1 [Compound 339]	≤ 100 nM
C[C@@H](CO)S(=O)(=O)Nc1ccc(C(=O)Nc2cc3ccn(C)c3c(N3CCC(F)(F)CC3)n2)c(N2CCC3(CC2)CC3)c1 [Compound 461]	≤ 100 nM
C[C@@H]1CN(c2cc(NC(=O)c3ccc(NS(=O)(=O)[C@@H](C)CO)cc3N3CCC4(CC3)CC4)cc3c2OCC3)CCO1 [Compound 15]	≤ 100 nM
C[C@@H](CO)S(=O)(=O)Nc1ccc(NC(=O)c2cc3ccoc3c(N3CCC(F)(F)CC3)n2)c(N2CCC3(CC2)CC3)c1 [Compound 237]	≤ 100 nM
Cn1ccc2cc(C(=O)Nc3ccc(NS(=O)(=O)CCO)cc3N3CCC4(CC3)CC4)nc(N3CCOCC3)c21 [Compound 492]	≤ 100 nM
C[C@H]1CN(c2cc(NC(=O)c3ccc(NS(=O)(=O)CCO)cc3N3CCC4(CC3)CC4)cc3ccoc23)CCO1 [Compound 131]	≤ 100 nM
C[C@@H](CO)NS(=O)(=O)c1ccc(NC(=O)c2cc3ccoc3c(N3CCC(F)(F)CC3)n2)c(N2CCC3(CC2)CC3)c1 [Compound 253]	≤ 100 nM
Cn1ccc2cc(NC(=O)c3ccc(S(=O)(=O)NCCO)cc3N3CCC4(CC3)CC4)nc(N3CC4CC4C3)c21 (centres unmarked) [Compound 474]	≤ 100 nM
O=C(Nc1ccc(NS(=O)(=O)CCO)cc1N1CCC2(CC1)CC2)c1cc(N2CC(F)(F)C2)c2occc2c1 [Compound 164]	≤ 100 nM
Cn1ccc2cc(C(=O)Nc3ccc(S(=O)(=O)NCCO)cc3N3CCC4(CC3)CC4)cc(OC3CCC3)c21 [Compound 439]	≤ 100 nM
Cn1ccc2cc(NC(=O)c3ccc(NS(=O)(=O)CCO)cc3N3CCC4(CC3)CC4)cc(NC(C)(C)CO)c21 [Compound 395]	≤ 100 nM
CN1CCc2cc(C(=O)Nc3ccc(S(=O)(=O)NCCO)cc3N3CCC4(CC3)CC4)cc(NC(C)(C)CO)c21 [Compound 315]	≤ 100 nM
CC(C)(CO)Nc1cc(C(=O)Nc2ccc(NS(=O)(=O)CCO)cc2N2CCC3(CC2)CC3)cc2c1OCC2 [Compound 43]	≤ 100 nM
Cn1ccc2cc(C(=O)Nc3ccc(S(=O)(=O)NCCO)cc3N3CCC4(CC3)CC4)nc(N3CC4CC4C3)c21 (centres unmarked) [Compound 506]	≤ 100 nM
C[C@H]1CN(c2nc(NC(=O)c3ccc(NS(=O)(=O)CCO)cc3N3CCC4(CC3)CC4)cc3ccoc23)CCO1 [Compound 195]	≤ 100 nM
Cn1ccc2cc(C(=O)Nc3ccc(S(=O)(=O)NCCO)cc3N3CCC4(CC3)CC4)cc(N3CC(F)(F)C3)c21 [Compound 436]	≤ 100 nM
C[C@@H](CO)NS(=O)(=O)c1ccc(C(=O)Nc2cc3c(c(N4CCC(F)(F)CC4)n2)OCC3)c(N2CCC3(CC2)CC3)c1 [Compound 93]	≤ 100 nM
CN1CCc2cc(C(=O)Nc3ccc(S(=O)(=O)NCCO)cc3N3CCC4(CC3)CC4)nc(N3CC4CC4C3)c21 (centres unmarked) [Compound 378]	≤ 100 nM
C[C@@H]1CN(c2cc(NC(=O)c3ccc(NS(=O)(=O)[C@@H](C)CO)cc3N3CCC4(CC3)CC4)cc3ccoc23)CCO1 [Compound 143]	≤ 100 nM
Cn1ccc2cc(NC(=O)c3ccc(NS(=O)(=O)CCO)cc3N3CCC4(CC3)CC4)cc(OC3CCC3)c21 [Compound 391]	≤ 100 nM
C[C@@H]1CN(c2cc(C(=O)Nc3ccc(NS(=O)(=O)CCO)cc3N3CCC4(CC3)CC4)cc3c2N(C)CC3)CCO1 [Compound 290]	≤ 100 nM
C[C@@H]1CN(c2cc(NC(=O)c3ccc(NS(=O)(=O)[C@H](C)CO)cc3N3CCC4(CC3)CC4)cc3ccoc23)CCO1 [Compound 144]	≤ 100 nM
Cn1ccc2cc(C(=O)Nc3ccc(NS(=O)(=O)CCO)cc3N3CCC4(CC3)CC4)cc(N3CCC(C)(F)C3)c21 (centres unmarked) [Compound 424]	≤ 100 nM
C[C@@H]1CN(c2nc(NC(=O)c3ccc(NS(=O)(=O)[C@H](C)CO)cc3N3CCC4(CC3)CC4)cc3c2OCC3)CCO1 [Compound 80]	≤ 100 nM
C[C@H](CO)NS(=O)(=O)c1ccc(NC(=O)c2cc3c(c(N4CCO[C@H](C)C4)n2)OCC3)c(N2CCC3(CC2)CC3)c1 [Compound 128]	≤ 100 nM

Now from value to molecule:

IC50	SMILES
≤ 100 nM	C[C@@H]1CN(c2cc(NC(=O)c3ccc(S(=O)(=O)NCCO)cc3N3CCC4(CC3)CC4)cc3c2N(C)CC3)CCO1 [Compound 274]
≤ 100 nM	O=C(Nc1cc(N2CC3CC3C2)c2occc2c1)c1ccc(NS(=O)(=O)CCO)cc1N1CCC2(CC1)CC2 (centres unmarked) [Compound 138]
≤ 100 nM	C[C@@H]1CN(c2nc(C(=O)Nc3ccc(NS(=O)(=O)CCO)cc3N3CCC4(CC3)CC4)cc3c2N(C)CC3)CCO1 [Compound 354]
≤ 100 nM	CN1CCc2cc(C(=O)Nc3ccc(S(=O)(=O)NCCO)cc3N3CCC4(CC3)CC4)cc(N3CCC4(CC4)C3)c21 [Compound 310]
≤ 100 nM	CN1CCc2cc(NC(=O)c3ccc(S(=O)(=O)NCCO)cc3N3CCC4(CC3)CC4)nc(N3CCC(F)(F)CC3)c21 [Compound 337]
≤ 100 nM	C[C@H]1CN(c2cc(NC(=O)c3ccc(S(=O)(=O)NCCO)cc3N3CCC4(CC3)CC4)cc3ccn(C)c23)CCO1 [Compound 403]
≤ 100 nM	C[C@H](CO)S(=O)(=O)Nc1ccc(C(=O)Nc2cc(N3CCC(F)(F)CC3)c3c(ccn3C)c2)c(N2CCC3(CC2)CC3)c1 [Compound 398]
≤ 100 nM	Cn1ccc2cc(NC(=O)c3ccc(NS(=O)(=O)CCO)cc3N3CCC4(CC3)CC4)nc(N3CCOCC3)c21 [Compound 460]
≤ 100 nM	C[C@@H]1CN(c2nc(NC(=O)c3ccc(S(=O)(=O)N[C@@H](C)CO)cc3N3CCC4(CC3)CC4)cc3ccoc23)CCO1 [Compound 223]
≤ 100 nM	C[C@@H]1CN(c2cc(C(=O)Nc3ccc(NS(=O)(=O)[C@@H](C)CO)cc3N3CCC4(CC3)CC4)cc3ccoc23)CCO1 [Compound 175]
≤ 100 nM	C[C@@H]1CN(c2nc(NC(=O)c3ccc(NS(=O)(=O)CCO)cc3N3CCC4(CC3)CC4)cc3ccoc23)CCO1 [Compound 194]
≤ 100 nM	C[C@@H](CO)S(=O)(=O)Nc1ccc(NC(=O)c2cc(N3CCC(F)(F)CC3)c3occc3c2)c(N2CCC3(CC2)CC3)c1 [Compound 173]
≤ 100 nM	O=C(Nc1cc2c(c(N3CC(F)(F)C3)c1)OCC2)c1ccc(S(=O)(=O)NCCO)cc1N1CCC2(CC1)CC2 [Compound 20]
≤ 100 nM	C[C@@H]1CN(c2cc(C(=O)Nc3ccc(NS(=O)(=O)[C@H](C)CO)cc3N3CCC4(CC3)CC4)cc3ccoc23)CCO1 [Compound 176]
≤ 100 nM	C[C@H]1CN(c2cc(NC(=O)c3ccc(S(=O)(=O)NCCO)cc3N3CCC4(CC3)CC4)cc3ccoc23)CCO1 [Compound 147]
≤ 100 nM	CN1CCc2cc(NC(=O)c3ccc(NS(=O)(=O)CCO)cc3N3CCC4(CC3)CC4)nc(N3CCC(F)CC3)c21 [Compound 329]

IC50	SMILES
≤ 100 nM	O=C(Nc1cc2scnc2c(N2CCC(F)(F)CC2)n1)c1ccc(NS(=O)(=O)CCO)cc1N1CCC2(CC1)CC2 [Compound 520]
≤ 100 nM	C[C@H]1CN(c2cc(C(=O)Nc3ccc(S(=O)(=O)NCCO)cc3N3CCC4(CC3)CC4)cc3ccn(C)c23)CCO1 [Compound 435]
≤ 100 nM	O=C(Nc1ccc(NS(=O)(=O)CCO)cc1N1CCC2(CC1)CC2)c1cc2c(c(N3CCC4(CC4)C3)n1)OCC2 [Compound 102]
≤ 100 nM	Cn1ccc2cc(C(=O)Nc3ccc(S(=O)(=O)NCCO)cc3N3CCC4(CC3)CC4)cc(N3CC4CC4C3)c21 (centres unmarked) [Compound 442]
≤ 100 nM	C[C@@H]1CN(c2cc(NC(=O)c3ccc(NS(=O)(=O)CCO)cc3N3CCC4(CC3)CC4)cc3c2N(C)CC3)CCO1 [Compound 258]
≤ 100 nM	C[C@@H](CO)S(=O)(=O)Nc1ccc(C(=O)Nc2cc3ccoc3c(N3CCC(F)(F)CC3)n2)c(N2CCC3(CC2)CC3)c1 [Compound 205]
≤ 100 nM	CC(C)(CO)Nc1nc(C(=O)Nc2ccc(S(=O)(=O)NCCO)cc2N2CCC3(CC2)CC3)cc2ccoc12 [Compound 251]
≤ 100 nM	CN1CCc2cc(NC(=O)c3ccc(S(=O)(=O)NCCO)cc3N3CCC4(CC3)CC4)cc(NC(C)(C)CO)c21 [Compound 283]
≤ 100 nM	CC(C)(CO)Nc1cc(C(=O)Nc2ccc(S(=O)(=O)NCCO)cc2N2CCC3(CC2)CC3)cc2c1OCC2 [Compound 59]
≤ 100 nM	C[C@@H]1CN(c2nc(C(=O)Nc3ccc(NS(=O)(=O)[C@@H](C)CO)cc3N3CCC4(CC3)CC4)cc3c2OCC3)CCO1 [Compound 111]
≤ 100 nM	C[C@@H]1CN(c2cc(NC(=O)c3ccc(S(=O)(=O)N[C@@H](C)CO)cc3N3CCC4(CC3)CC4)cc3ccn(C)c23)CCO1 [Compound 415]
≤ 100 nM	CN1CCc2cc(C(=O)Nc3ccc(NS(=O)(=O)CCO)cc3C3CCC4(CC3)CC4)nc(N3CCC4(CC4)C3)c21 [Compound 358]
≤ 100 nM	C[C@H]1CN(c2cc(NC(=O)c3ccc(S(=O)(=O)NCCO)cc3N3CCC4(CC3)CC4)cc3c2N(C)CC3)CCO1 [Compound 275]
≤ 100 nM	C[C@H](CO)NS(=O)(=O)c1ccc(NC(=O)c2cc(N3CCC(F)(F)CC3)c3occc3c2)c(N2CCC3(CC2)CC3)c1 [Compound 190]
≤ 100 nM	C[C@H](CO)S(=O)(=O)Nc1ccc(C(=O)Nc2cc3ccn(C)c3c(N3CCC(F)(F)CC3)n2)c(N2CCC3(CC2)CC3)c1 [Compound 462]
≤ 100 nM	C[C@@H]1CN(c2cc(NC(=O)c3ccc(S(=O)(=O)N[C@@H](C)CO)cc3N3CCC4(CC3)CC4)cc3c2N(C)CC3)CCO1 [Compound 287]
